Values quoted from earlier work as cited in US20240350480A1, “STABLE PHARMACEUTICAL COMPOSITION OF METHYLNALTREXONE FOR AN ORAL ADMINISTRATION” (Lupin Limited, priority 2023, published 2024).

Details: oral administration

C[N+]1(CC2CC2)CC[C@]23c4c5ccc(O)c4O[C@H]2C(=O)CC[C@@]3(O)[C@H]1C5.[Br-] (stereo partly shown) [methylnaltrexone]
Methylnaltrexone absorbed into the bloodstream: less than 5%
